Measurements taken from ChEMBL document CHEMBL1148675, “Protein microarrays to study carbohydrate-recognition events” (Bioorg Med Chem Lett, 2006).
pIC50: −log10 of the molar value. Activity calls are given as the source filed them. No cut-off for these calls is given here.

How the values were obtained:
[1] = species: Homo sapiens; experiment: Binding affinity to myokinase by microarray at 0.5 uM
[2] = species: Homo sapiens; experiment: Binding affinity to collagenase by microarray at 0.5 uM
[3] = species: Homo sapiens; experiment: Binding affinity to GST by microarray at 0.5 uM
[4] = target: Insulin (Homo sapiens) (UniProt P01308); experiment: Binding affinity to insulin by microarray at 0.5 uM
Sequence of Insulin (Homo sapiens) (P01308 whole entry): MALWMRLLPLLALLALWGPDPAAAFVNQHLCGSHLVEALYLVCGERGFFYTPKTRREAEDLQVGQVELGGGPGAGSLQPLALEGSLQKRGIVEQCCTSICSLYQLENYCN

[5] = Inhibition of trivalent GlcNAc binding to wheat germ agglutinin without irradiation by microarray; parameters: species or system Triticum aestivum
[6] = target: Antithrombin-III (Homo sapiens) (UniProt P01008); experiment: Binding affinity to antithrombin by microarray at 0.5 uM
Sequence of Antithrombin-III (Homo sapiens) (P01008 whole entry): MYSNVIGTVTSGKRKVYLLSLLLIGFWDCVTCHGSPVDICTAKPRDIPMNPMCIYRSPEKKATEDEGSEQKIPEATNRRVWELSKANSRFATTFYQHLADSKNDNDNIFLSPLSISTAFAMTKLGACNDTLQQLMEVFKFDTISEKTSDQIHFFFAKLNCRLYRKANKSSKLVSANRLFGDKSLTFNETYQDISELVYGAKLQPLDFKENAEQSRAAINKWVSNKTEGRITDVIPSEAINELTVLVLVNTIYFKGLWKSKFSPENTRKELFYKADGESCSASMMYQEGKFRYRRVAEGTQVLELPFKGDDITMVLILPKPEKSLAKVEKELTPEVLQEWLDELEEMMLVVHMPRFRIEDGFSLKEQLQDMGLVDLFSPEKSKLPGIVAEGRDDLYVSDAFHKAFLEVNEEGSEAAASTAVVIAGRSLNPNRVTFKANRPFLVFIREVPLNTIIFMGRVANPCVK

[7] = Inhibition of trivalent GlcNAc binding to wheat germ agglutinin with irradiation by microarray; parameters: species or system Triticum aestivum
[8] = target: Trypsin (Homo sapiens) (UniProt P07477+P07478+P35030); experiment: Binding affinity to trypsin by microarray at 0.5 uM; type: protein assay
[9] = target: Streptavidin (Streptomyces avidinii) (UniProt P22629); experiment: Binding affinity to streptavidin by microarray
Sequence of Streptavidin (Streptomyces avidinii) (P22629 whole entry): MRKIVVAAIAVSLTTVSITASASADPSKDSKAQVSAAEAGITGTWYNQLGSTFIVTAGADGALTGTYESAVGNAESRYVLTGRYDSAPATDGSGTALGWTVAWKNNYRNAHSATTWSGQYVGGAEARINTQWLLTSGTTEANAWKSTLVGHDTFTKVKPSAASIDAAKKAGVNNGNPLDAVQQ

[10] = species: Homo sapiens; experiment: Binding affinity to hyaluronidase by microarray at 0.5 uM
[11] = species: Homo sapiens; experiment: Binding affinity to pepsin by microarray at 0.5 uM
[12] = species: Homo sapiens; experiment: Binding affinity to amylase by microarray at 0.5 uM
[13] = test system: Triticum aestivum; experiment: Binding affinity to wheat germ agglutinin by microarray at 0.5 uM
[14] = test system: Sambucus nigra; experiment: Binding affinity to Sambucus nigra A lectin by microarray at 0.5 uM
[15] = test system: Canavalia; experiment: Binding affinity to Concanavalin A by microarray at 0.5 uM
[16] = target: Prothrombin (Homo sapiens) (UniProt P00734); experiment: Binding affinity to thrombin by microarray at 0.5 uM
[17] = species: Homo sapiens; experiment: Binding affinity to RNase A by microarray at 0.5 uM
[18] = species: Homo sapiens; experiment: Binding affinity to alkaline phosphatase by microarray at 0.5 uM
[19] = test system: Aleuria aurantia; experiment: Binding affinity to Aleuria Aurantia lectin by microarray at 0.5 uM
[20] = target: T1, Ovalbumin (Gallus gallus) (UniProt P01012); experiment: Binding affinity to ovalbumin by microarray at 0.5 uM
T1 sequence (whole entry): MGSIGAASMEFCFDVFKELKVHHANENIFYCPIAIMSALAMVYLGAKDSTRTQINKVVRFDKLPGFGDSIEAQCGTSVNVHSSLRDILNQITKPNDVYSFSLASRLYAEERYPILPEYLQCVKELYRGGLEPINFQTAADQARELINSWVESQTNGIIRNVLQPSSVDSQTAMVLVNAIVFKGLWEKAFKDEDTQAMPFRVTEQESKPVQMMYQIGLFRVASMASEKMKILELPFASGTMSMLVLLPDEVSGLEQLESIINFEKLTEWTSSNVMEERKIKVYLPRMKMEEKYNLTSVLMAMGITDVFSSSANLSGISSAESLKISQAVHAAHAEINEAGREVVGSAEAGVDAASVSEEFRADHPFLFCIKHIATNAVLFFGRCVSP

[21] = test system: Ricinus communis; experiment: Binding affinity to Ricinus communis agglutinin 120 by microarray at 0.5 uM

SMILES: CC(=O)N[C@H]1[C@H](OCCNC(=O)CCC(=O)NCCCC[C@H](NC(=O)CCC(=O)NCCO[C@@H]2O[C@H](CO)[C@@H](O)[C@H](O)[C@H]2NC(C)=O)C(=O)N[C@@H](CCCCNC(=O)[C@H](COCc2ccc(C(=O)c3ccccc3)cc2)NC(=O)CCC(=O)NCCO[C@@H]2O[C@H](CO)[C@@H](O)[C@H](O)[C@H]2NC(C)=O)C(=O)NCCCOCCOCCOCCCNC(=O)CCC(=O)NCCOCCOCCNC(=O)CCCCN2CCC(C)(C)/C2=C\C=C\C2=[N+](C)c3ccccc3C2(C)C)O[C@H](CO)[C@@H](O)[C@@H]1O
- Activity [1]: inactive
- Activity [2]: inactive
- Activity [3]: inactive
- Activity [4]: inactive
- pIC50 [5]: 2.10
- Activity [6]: inactive
- pIC50 [7]: 1.77
- Activity [8]: inactive
- Activity [9]: inactive
- Activity [10]: inactive
- Activity [11]: inactive
- Activity [12]: inactive
- Activity [13]: Active
- Activity [14]: inactive
- Activity [15]: inactive
- Activity [16]: inactive
- Activity [17]: inactive
- Activity [18]: inactive
- Activity [19]: inactive
- Activity [20]: inactive

SMILES: C[C@H]1O[C@H](OCCNC(=O)CCC(=O)NCCCC[C@H](NC(=O)CCC(=O)NCCO[C@H]2O[C@H](C)[C@H](O)[C@H](O)[C@H]2O)C(=O)N[C@@H](CCCCNC(=O)[C@H](COCc2ccc(C(=O)c3ccccc3)cc2)NC(=O)CCC(=O)NCCO[C@H]2O[C@H](C)[C@H](O)[C@H](O)[C@H]2O)C(=O)NCCCOCCOCCOCCCNC(=O)CCC(=O)NCCOCCOCCNC(=O)CCCCN2CCC(C)(C)/C2=C\C=C\C2=[N+](C)c3ccccc3C2(C)C)[C@H](O)[C@@H](O)[C@H]1O
- Activity [1]: inactive
- Activity [2]: inactive
- Activity [3]: inactive
- Activity [4]: inactive
- Activity [6]: inactive
- Activity [8]: inactive
- Activity [9]: inactive
- Activity [10]: inactive
- Activity [11]: inactive
- Activity [12]: inactive
- Activity [13]: inactive
- Activity [14]: inactive
- Activity [15]: inactive
- Activity [16]: inactive
- Activity [17]: inactive
- Activity [18]: inactive
- Activity [19]: Active
- Activity [20]: inactive

SMILES: CC(=O)N[C@H]1[C@@H](OCCNC(=O)CCC(=O)NCCCC[C@H](NC(=O)CCC(=O)NCCO[C@H]2O[C@H](CO)[C@@H](O[C@@H]3O[C@H](CO)[C@H](O)[C@H](O)[C@H]3O)[C@H](O)[C@H]2NC(C)=O)C(=O)N[C@@H](CCCCNC(=O)[C@H](COCc2ccc(C(=O)c3ccccc3)cc2)NC(=O)CCC(=O)NCCO[C@H]2O[C@H](CO)[C@@H](O[C@@H]3O[C@H](CO)[C@H](O)[C@H](O)[C@H]3O)[C@H](O)[C@H]2NC(C)=O)C(=O)NCCCOCCOCCOCCCNC(=O)CCC(=O)NCCOCCOCCNC(=O)CCCCN2CCC(C)(C)/C2=C\C=C\C2=[N+](C)c3ccccc3C2(C)C)O[C@H](CO)[C@@H](O[C@@H]2O[C@H](CO)[C@H](O)[C@H](O)[C@H]2O)[C@@H]1O
- Activity [1]: inactive
- Activity [2]: inactive
- Activity [3]: inactive
- Activity [4]: inactive
- Activity [6]: inactive
- Activity [8]: inactive
- Activity [9]: inactive
- Activity [10]: inactive
- Activity [11]: inactive
- Activity [12]: inactive
- Activity [13]: Active
- Activity [14]: inactive
- Activity [21]: Active
- Activity [15]: inactive
- Activity [16]: inactive
- Activity [17]: inactive
- Activity [18]: inactive
- Activity [19]: inactive
- Activity [20]: inactive
